Laboratory results published in PMC2361071, “A phase I and pharmacokinetic study of novel taxane BMS-188797 and cisplatin in patients with advanced solid tumours” (British Journal of Cancer, 2005).
“Also recorded” adds a separate entry of the source. Read-outs that look alike come from different tables or passages of the source.

Assays:
patients = system: patients; design: method as in Sullivan et al, 2001; conditions: ref Sullivan et al, 2001, cited from earlier work
[1] = system: human tumour cell lines highly resistant to paclitaxel; design: method as in Rose et al, 2001; conditions: ref Rose et al, 2001, cited from earlier work
[2] = system: patients with advanced solid tumours; assay: Phase I dose escalation of BMS-188797 plus cisplatin: DLT, MTD and toxicity (NCI CTC v2.0); format: in vivo
Protocol: This study was an open-label, single-centre, phase I, dose-escalation trial with the primary objective to determine the MTD and DLT and to recommend a future phase II dose. Secondary objectives were safety, antitumour activity and pharmacokinetics of the experimental drug. The study was carried out with ethical committee approval.
BMS-188797 administered by a 1-h infusion was followed by a 1-h infusion of cisplatin starting 30 min after the end of the BMS-188797 infusion; both drugs were given on day 1, every 3 weeks. Six treatment cycles were planned. Treatment had to be discontinued upon progression or occurance of intolerable toxicity.
If no further DLT occurred, the next DL was opened. If the total number of patients with DLT at any DL was two or higher, then dose escalation was terminated and additional patients were enrolled at the next lower DL. The MTD was defined as the DL at which none of the three or one of six patients experienced a DLT. Once the MTD had been established, accrual at the respective DL was expanded to determine its suitability as the recommended phase II dose.
The DLT was defined as first-course toxicity with ANC <500 μl^−1 for ⩾5 days, or febrile neutropenia (fever >38.5°C and ANC <1000 μl^−1), or thrombocytopenia <25,000 μl^–1; or bleeding requiring platelet transfusion, or any other drug-related grade ⩾3 toxicity except fatigue/asthenia, transient arthralgia/myalgia, or grade 3 AST/ALT elevation (resolving to baseline within 3 weeks). Furthermore, delayed recovery from toxicity related to treatment with BMS-188797 and cisplatin that delayed scheduled retreatment for 21 days or longer was regarded as DLT.
(§1) Toxicity was evaluated according to NCI CTC (Vers. 2.0; revised April 30, 1999) in all patients receiving study drug. Tumour measurement was performed in patients with measurable disease after every other cycle; response was assessed according to World Health Organization (WHO) criteria. Ascites or serum tumour marker elevations were not considered in the assessment of response status except in case of progressive disease or complete remission when both had to be normalised.

[3] = system: patients with advanced solid tumours; assay: Antitumour activity, response by WHO criteria; format: in vivo, human
Protocol: as §1

[4] = Plasma pharmacokinetics of BMS-188797 in patients, cycle 1 (HPLC, noncompartmental analysis); format: in vivo, human; conditions: for AUC(0-inf) / Cmax / half-life: human, plasma, intravenous
Protocol: In all, 5 ml of blood were collected for pharmacokinectic analysis using Becton-Dickenson Vacutainers® that contained K3EDTA as the anticoagulant. Blood sampling for pharmacokinetics analysis was performed in all patients during cycle 1. Serial blood samples were drawn at the following times relative to the start of the 1 h infusion of BMS-188797: predose, 30 min, 58 min (drawn prior to the end of the infusion), and 1.25, 1.5, 2, 2.5, 3, 4, 5, 6, 8, 24, 48 and 72 h. Within 1 h of collection, the plasma was separated by centrifugation at 1000 rpm for 15 min at 4°C. Plasma was stored at or below […] until analysis. Plasma samples were analysed for BMS-188797 concentrations by HPLC. After the addition of internal standard, BMS-183061, to 1.0 ml of plasma, the sample was loaded onto a CN-U solid-phase extraction column. The compounds were eluted with 0.1% formic acid in methanol, the eluate evaporated to dryness, and the residue reconstituted. Chromatographic separation of the compounds was achieved on a YMC-ODS-AQ, 4.6 × 150 mm, 3 μm column using a mobile phase containing 30% water in acetonitrile. Detection was by ultraviolet absorbance at 228 nm. The standard curve range was 2–1000 ng ml^−1. The coefficient of variation (CV) for the between- and within-run precision for analytical quality control samples were no greater than 3.0 and 7.1%, respectively
Estimates of pharmacokinetic parameters for BMS-188797 were derived from individual concentration–time data sets by noncompartmental analyses ([Gibaldi and Perrier, 1982]). The values of the maximum plasma concentration (Cmax) were recorded directly from experimental observations. The area under the plasma concentration vs. time curve from time zero to the time of the last measurable concentration T (AUC0-T) was calculated using a combination of linear and log trapezoidal summations. The first-order rate constant of decline of BMS-188797 concentrations in the terminal phase of the plasma concentration–time data set, λ, was estimated by log-linear regression, using no weighting factor, of at least three data points yielding a minimum mean square error. The absolute value of λ was used to estimate the apparent terminal elimination half-life, t1/2. The last measurable concentration and the rate constant, λ, were used to extrapolate the AUC0-T to estimate AUC0-∞ (the area under the curve from time zero to infinity). The total body clearance (Cl) was calculated by dividing the dose by AUC0-∞. The volume of distribution at steady state (VSS) was calculated using standard noncompartmental methods.

[5] = system: patients with advanced malignancies; design: method as in Advani et al, 2002; conditions: weekly BMS-188797 with carboplatin, DLs AUC 6/33 mg m−2 and AUC 5/43 mg m−2, preliminary data; ref Advani et al, 2002; cited from earlier work
[6] = system: patients with advanced malignancies; design: method as in Sullivan et al, 2000; conditions: single agent, 1-h infusion every 3 weeks; ref Sullivan et al, 2000; cited from earlier work
[7] = system: patients with advanced malignancies; design: method as in Advani et al (2003); conditions: single agent, weekly administration; ref Advani et al (2003); cited from earlier work
[8] = system: paclitaxel-resistant tumour models in mice; design: method as in Rose et al, 2001; conditions: ref Rose et al, 2001; cited from earlier work
[9] = 1-h infusion every 3 weeks combined with cisplatin 75 mg m−2
[10] = 80 mg m−2 1-h infusion with cisplatin 75 mg m−2, cycle 1, n=3, mean±s.d.
[11] = 110 mg m−2 1-h infusion with cisplatin 75 mg m−2, cycle 1, n=12, mean±s.d.
[12] = 150 mg m−2 1-h infusion with cisplatin 75 mg m−2, cycle 1, n=1
[13] = mean±s.d. of the three dose groups (80, 110, 150 mg m−2), cycle 1

COC(=O)O[C@@]12CO[C@@H]1C[C@H](O)[C@@]1(C)C(=O)[C@H](OC(C)=O)C3=C(C)[C@@H](OC(=O)[C@H](O)[C@@H](NC(=O)c4ccccc4)c4ccccc4)C[C@@](O)([C@@H](OC(=O)c4ccccc4)[C@H]21)C3(C)C [BMS-188797, 4-desacetyl-4-methyl carbonate derivate of paclitaxel]
MTD (patients; with carboplatin AUC 5, every 3 weeks): 125 mg m^−2
Dose-limiting toxicities (DLT) (patients; with carboplatin, every 3 weeks): febrile neutropenia and slow recovery from neutropenia
antiproliferative activity ([1]; cell lines resistant through P-glycoprotein overexpression or beta-tubulin mutations): potent antiproliferative activity
cell cycle effect [1]: G2/M cell cycle arrest
Mild hypersensitivity reactions (grade 2 rash and dyspnea), patients affected ([2]; 110 mg m−2 DL, with steroid and H1/H2-antagonist premedication): only one patient
maximum tolerated dose (MTD) [2, 9]: 110 mg m^−2
recommended phase II dose [2, 9]: 110 mg m^−2
median duration of neutropenia ([2]; DL 1, 80 mg m−2): 4 days
median time to the neutrophil nadir ([2]; DL 1, 80 mg m−2): 12 days
median duration of neutropenia ([2]; DL 2, 110 mg m−2): 8 days
median time to the neutrophil nadir ([2]; DL 2, 110 mg m−2): 14 days
MTD (dose level designated) ([2]; DL 2, 110 mg m−2 with cisplatin 75 mg m−2): MTD
median duration of neutropenia ([2]; DL 3, 150 mg m−2): 4 days
median time to the neutrophil nadir ([2]; DL 3, 150 mg m−2): 8 days
alopecia, patients affected ([2]; all dose levels, 16 patients): All patients but one
stable disease as best response, patients ([3]; DL 1, 80 mg m−2 with cisplatin, ovarian cancer, NSCLC, CUP): three patients
progressive disease, patients ([3]; DL 2, 110 mg m−2 with cisplatin, lung cancer (two), ovarian sarcoma, CUP): Four patients
complete remissions ([3]; DL 2, 110 mg m−2 with cisplatin, ovarian (two) and cervical cancer (one)): three complete remissions
partial response ([3]; DL 2, 110 mg m−2 with cisplatin, ovarian cancer): One partial response
stable disease, patients ([3]; DL 2, 110 mg m−2 with cisplatin, urachus carcinoma and NSCLC): two patients
best response of the only patient treated ([3]; DL 3, 150 mg m−2 with cisplatin, CUP): disease progression
objective response, patients ([3]; all dose levels, 16 patients): four patients
Cl [4, 10]: 333±14 (317, 344) ml min−1 m−2
VSS [4, 10]: 331±135 (214, 478) l m−2
interpatient coefficient of variation of CL ([4]; 110 mg m−2): 19%
interpatient coefficient of variation of VSS ([4]; 110 mg m−2): 35%
interpatient coefficient of variation of t1/2 ([4]; 110 mg m−2): 24%
Cl [4, 11]: 322±60 (234, 437) ml min−1 m−2
VSS [4, 11]: 244±86 (115, 395) l m−2
range of AUC0-∞ values ([4]; 110 mg m−2 DL): 1.8 fold
Cl [4, 12]: 206 NA ml min−1 m−2
VSS [4, 12]: 209 NA l m−2
dose dependence (linearity) of pharmacokinetics ([4]; 80-150 mg m−2 with cisplatin 75 mg m−2): appeared linear through the 110 mg m^−2, but not through the 150 mg m^−2 DL; also recorded: appeared independent of dose through the 110 mg m^−2 DL, but not through the 150 mg m^−2 DL; also recorded: appeared linear through a DL of 110 mg m^−2
AUC(0-inf) [4, 10]: 4000 ± 184 ng·h/mL
Cmax [4, 10]: 2650 ± 690 ng/mL
half-life ([4]; 80 mg m−2 1-h infusion with cisplatin 75 mg m−2, cycle 1, n=3, mean±s.d., read-out: t1/2 (converted)): 31 ± 11.7 h
AUC(0-inf) [4, 11]: 5870 ± 1060 ng·h/mL
Cmax [4, 11]: 3370 ± 591 ng/mL
half-life ([4]; 110 mg m−2 1-h infusion with cisplatin 75 mg m−2, cycle 1, n=12, mean±s.d., read-out: t1/2 (converted)): 30.6 ± 7.5 h
AUC(0-inf) [4, 12]: 12200 ng·h/mL
Cmax [4, 12]: 5770 ng/mL
half-life ([4]; 150 mg m−2 1-h infusion with cisplatin 75 mg m−2, cycle 1, n=1, read-out: t1/2 (converted)): 31.4 h
half-life ([4]; 150 mg, mean±s.d. of the three dose groups (80, 110, 150 mg m−2), cycle 1, read-out: terminal half-life (converted)): 30.8 ± 7.7 h
clearance [4, 13]: 317±60 ml min^−1 m^−2
volume of distribution at steady state [4, 13]: 258±96 l m^−2
clearance in the 150 mg m−2 patient relative to patients at 80 or 110 mg m−2 ([4]; n=1 at 150 mg m−2): approximately one-third lower
dose-limiting toxicities [5]: prolonged grade 4 neutropenia and delayed haematological recovery
maximum tolerated dose (MTD) [6]: 175 mg m^−2
MTD [7]: 50 mg m^−2
in vivo activity [8]: potent in vivo activity
